Source: paper PMC3480714 (Nature chemical biology, 2012)

Target: T1, CobL (Rhodobacter capsulatus, UniProt D5AV04)
T1 sequence (D5AV04 214-396): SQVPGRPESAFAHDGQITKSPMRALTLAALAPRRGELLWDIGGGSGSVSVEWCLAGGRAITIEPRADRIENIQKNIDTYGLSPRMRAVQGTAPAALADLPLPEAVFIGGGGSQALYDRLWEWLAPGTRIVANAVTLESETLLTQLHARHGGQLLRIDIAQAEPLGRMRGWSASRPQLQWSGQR
Assay: X-ray crystal structure at […] Å
Type: binding

## Nc1ncnc2c1ncn2[C@@H]1O[C@H](CSCC[C@H](N)C(=O)O)[C@@H](O)[C@H]1O [SAH]
  X-ray crystal structure at 2.7 Å: The SAM binding site of the CobL^C subunit showing SAH bound at the C-terminal end of the Rossmann-like
